{"source": "patent US6514994B2", "about": "“Levobupivacaine and its use” (Darwin Discovery, Ltd., priority 1997, dated 2003)", "key": {"[1]": {"test_system": "Pentobarbital-Anesthetized Swine", "test": "Intracoronary (LAD) injection cardiotoxicity model, lethal dose and QRS prolongation", "type": "in vivo", "conditions": "for lethal dose, median / lethal dose, range: LAD injection, death by VF; for lethal dose higher than that of B: injected into LAD or RCA", "method": "Reiz et al, Acta Anaesthesiol. Scand. (1989) 33:93-98, reports that in vivo cardiotoxicity of local anaesthetics can be evaluated without interference by central mechanisms in a highly reproducible model (Pentobarbital-Anesthetized Swine) where the drug is injected directly into a coronary artery. When local anesthetics are injected in the left anterior descending artery (LAD), death occurs consistently by ventricular fibrillation (VF). The aim of this study was to determine the lethal dose of each of the local anesthetics levobupivacaine (L), bupivacaine (B) and ropivacaine (R) as well as to compare their respective effects on the QRS interval of the precordial ECG.\nA total of 27 animals were randomized to receive a dose response injection of L, B or R into the LAD. A blinded randomized protocol was used. All calculations and exclusions were made prior to disclosure of treatment. The doses of each agent were 0.375, 0.75, 1.5, 3.0, 4.0 mg etc., in increments of 1 mg till death occurred. Each dose was made up in a volume of 3 ml plus the dead space of the catheter (1.2 ml), injected over 10 sec. The time between doses was 5 min, or longer, if ECG, blood pressure or heart rate had not returned to pre-injection controls. A complete 12-lead ECG was recorded on optical disk for later analysis. Statistical analysis was by ANOVA, Dunnett's and the Mann-Whitney-U test. Power analysis was performed (0.85 to 1.00).\nOne animal died of myocardial infarction following acute embolization into the LAD. […] Of the animals injected into the LAD, 7 had received L, 7 B and 6 R. All deaths following LAD injection were by VF and deaths following RCA injection were by A-V dissociation. […] The difference between L and R at 50 msec prolongation was insignificant."}, "[2]": {"test_system": "guinea-pig papillary muscle", "test": "Developed force and action potential parameters in papillary muscle", "conditions": "for effect on developed force and action potential parameters at steady-state: equimolar concentrations", "method": "Contraction was measured in mycocytes and papillary muscle isolated from guinea-pig ventricle and pectinate muscle isolated from human right atrial appendage. Myocytes were isolated from guinea-pig left ventricle by an enzyme digestion procedure and placed in a chamber on the stage of an inverted microscope. Cells were superfused with Krebs-Henseleit buffer (KHB) at 30° C. and field stimulated at 1.0 Hz. Cell shortening was measured with a video camera and edge-etection system. Papillary and pectinate muscles were placed in KHB at 37° C. and field stimulated at 1.0 Hz. Isometric tension was recorded at maximum developed force (Lmax). Electrophysical parameters were recorded in papillary muscles superfused with KSB at 37° C. and stimulated at 1.0 Hz. Standard action potential parameters were recorded, i.e. maximum rate of rise of membrane potential (Vmax); action potential amplitude (APA); and action potential duration to 90% repolarisation (APD90). Developed force was measured by recording isometric tension in muscles stretched to 90% of Lmax."}, "[3]": {"test_system": "conscious, previously instrumented, adult sheep", "test": "Electrocardiological effects of i.v. infusion in conscious sheep", "type": "in vivo", "conditions": "for deaths: 150, 150 and 200 mg infused over 3 min, ventricular tachycardia and fibrillation; for convulsive dose (inducing ventricular arrhythmias): sheep, 3 min", "method": "The electrocardiological effects of bupivacaine and levobupivacaine were compared, in two groups of conscious, previously instrumented, adult sheep. Two cohorts of 7 animals were infused over 1 min with 6.25, 12.5, 18.75, 25 and 37.5 mg levobupivacaine and 12.5, 25 and 37.5 mg bupivacaine or over 3 min with 37.5, 50, 75, 100, 150 and 200 mg levobupivacaine and 37.5, 75, 100, 150 and 200 mg bupivacaine. […] Both drugs, at convulsive doses (75 mg bupivacaine, 100 mg levobupivacaine), induced ventricular arrhythmias; however, there was a higher threshold of toxicity with levobupivacaine. […] Inasmuch as levobupivacaine is reported to produce at least equivalent neural blockade to bupivacaine, it therefore offers a great margin of clinical safety.\nFIGS. 1 and 2 of the accompanying drawings show baseline record of ECG (left), S-T segment change (centre) and multiform ventricular tachycardia (right) after i.v. infusion (40 ml, 3 min) of 100 mg bupivacaine and then of 200 mg levobupivacaine, in the same sheep."}, "[4]": {"test_system": "patients undergoing major abdominal surgery", "test": "Epidural anaesthesia in patients undergoing major abdominal surgery", "type": "in vivo, human", "conditions": "0.75%", "method": "This study compared the efficacy, safety and pharmacokinetics of 0.75% levobupivacaine with 0.75% bupivacaine in 58 patients undergoing major abdominal surgery under epidural anaesthesia. Although 0.75% bupivacaine is no longer used in some situations (obstetrics) and 0.5% concentrations are usually adequate for lower extremity surgery, 0.75% is preferential for abdominal surgery because of the enhancement of motor blockade. Onset of sensory anaesthesia to T10 (mean˜15 minutes), time to peak block height (T5, 25-30 min), and abdominal muscle relaxation (RAM score 3-5) were equivalent between the groups. Duration of total sensory anaesthesia was statistically longer with 0.75% levobupivacaine (levobupivacaine—551 min, racemic bupivacaine—506 min)."}, "[5]": {"test_system": "adult patients, axillary brachial plexus", "conditions": "by comparison; cited from earlier work"}, "[6]": {"test_system": "myocytes isolated from guinea-pig left ventricle", "test": "Cell shortening (contraction) in isolated ventricular myocytes", "type": "cell-based", "conditions": "cardiac myocytes, P<0.05", "method": "Contraction was measured in mycocytes and papillary muscle isolated from guinea-pig ventricle and pectinate muscle isolated from human right atrial appendage.\nMyocytes were isolated from guinea-pig left ventricle by an enzyme digestion procedure and placed in a chamber on the stage of an inverted microscope. Cells were superfused with Krebs-Henseleit buffer (KHB) at 30° C. and field stimulated at 1.0 Hz. Cell shortening was measured with a video camera and edge-etection system. Papillary and pectinate muscles were placed in KHB at 37° C. and field stimulated at 1.0 Hz. Isometric tension was recorded at maximum developed force (Lmax).\nThe mean drug concentration producing a 50% reduction (CI-50) in cell shortening was calculated from cumulative dose-response curves. All data were analysed by an unpaired t-test (for control data comparison) or one-way ANOVA (for comparison between drug groups), assuming a Gaussian distribution."}, "[7]": {"test_system": "adult patients, axillary brachial plexus", "test": "Axillary brachial plexus neural blockade in patients with distal upper extremity orthopaedic surgery", "type": "in vivo, human", "method": "20 adult patients scheduled for distal upper extremity orthopaedic surgical procedures with axillary brachial plexus neural blockade were studied. Patients received an axillaryblock using 50 ml of 0.5% levobupivacaine without epinephrine. Transarterial and/or nerve stimulator techniques were used to identify injection into the brachial plexus sheath. If after 10 min patients required supplemental local anaesthetic to produce anaesthesia in a single peripheral nerve distribution, an additional 10 ml of 0.5% levobupivacaine could be administered as a single peripheral nerve-block at the axilla or wrist. Patients were monitored for onset and duration of sensory and motor block using a 0-2 scale (0=no block, 1=partial block, 2=complete block) for each major nerve distribution (median, musculocutaneous, radius, ulnar). Time to onset of adequate anaesthesia for surgery, time to first request for post-operative analgesics, as well as any subjective or objective signs of local anaesthetic toxicity were also collected. Blood samples for PK analysis were drawn from 10 patients."}, "[8]": {"test": "Plasma kinetics after administration (summary statement)", "type": "in vivo"}, "sensory block": {"test_system": "sensory block", "conditions": "0.25%; cited from earlier work"}}, "data": [{"smiles": "CCCN1CCCC[C@H]1C(=O)Nc1c(C)cccc1C", "note": "[ropivacaine, reference compound]", "values": [{"measurement": "lethal dose, median", "setting": "[1]", "result": 8, "unit": "mg"}, {"measurement": "lethal dose, range", "setting": "[1]", "result": "4 to 10", "unit": "mg"}, {"measurement": "QRS prolongation", "setting": "[1]; at the 6 mg dose, 100% approximately 60 msec", "result": "≤ 100", "unit": "%"}, {"measurement": "lethal dose higher than that of B", "setting": "[1]", "result": "approximately 50%"}, {"measurement": "effect on developed force and action potential parameters at steady-state", "setting": "[2]", "result": "No significant differences"}]}, {"smiles": "CCCCN1CCCCC1C(=O)Nc1c(C)cccc1C", "note": "(racemic) [bupivacaine]", "values": [{"measurement": "deaths", "setting": "[3]", "result": "Three animals died within 10 min"}, {"measurement": "potency in inducing an arrhythmia, relative to levobupivacaine", "setting": "[3]; in vivo, iv", "result": "slightly more potent"}, {"measurement": "potency in sustaining the arrhythmia, relative to levobupivacaine", "setting": "[3]; in vivo, iv", "result": "more than three times more potent"}, {"measurement": "convulsive dose (inducing ventricular arrhythmias)", "setting": "[3]; in vivo, iv", "result": 75, "unit": "mg"}, {"measurement": "lethal dose, median", "setting": "[1]", "result": 5, "unit": "mg"}, {"measurement": "lethal dose, range", "setting": "[1]", "result": "4 to 6", "unit": "mg"}, {"measurement": "duration of total sensory anaesthesia", "setting": "[4]", "result": 506, "unit": "min"}, {"measurement": "onset of sensory anaesthesia to T10, mean", "setting": "[4]", "result": "~15", "unit": "min"}, {"measurement": "effect on developed force and action potential parameters at steady-state", "setting": "[2]", "result": "No significant differences"}, {"measurement": "recommended dose", "setting": "[5]", "result": 2, "unit": "mg/kg"}]}, {"smiles": "CCCCN1CCCC[C@H]1C(=O)Nc1c(C)cccc1C", "note": "[levobupivacaine, (S)-1-butyl-N-(2,6-dimethylphenyl)-2-piperidinecarboxamide]", "values": [{"measurement": "deaths", "setting": "[3]", "result": "No animals died"}, {"measurement": "ventricular arrhythmias induced, compared with the same doses of bupivacaine", "setting": "[3]; in vivo", "result": "Significantly fewer, as well as less deleterious"}, {"measurement": "convulsive dose (inducing ventricular arrhythmias)", "setting": "[3]; in vivo, iv", "result": 100, "unit": "mg"}, {"measurement": "lethal dose, median", "setting": "[1]", "result": 8, "unit": "mg"}, {"measurement": "lethal dose, range", "setting": "[1]", "result": "7 to 9", "unit": "mg"}, {"measurement": "difference in dose vs B to obtain the same degree of QRS prolongation", "setting": "[1]; at 40 msec QRS prolongation", "result": 25, "unit": "%"}, {"measurement": "difference between L and R in dose for QRS prolongation", "setting": "[1]; at 50 msec prolongation", "result": "insignificant"}, {"measurement": "difference in dose vs B to obtain the same degree of QRS prolongation", "setting": "[1]; at 90 msec QRS prolongation", "result": 47, "unit": "%"}, {"measurement": "lethal dose higher than that of B", "setting": "[1]", "result": "approximately 50%"}, {"measurement": "duration of total sensory anaesthesia", "setting": "[4]", "result": 551, "unit": "min"}, {"measurement": "onset of sensory anaesthesia to T10, mean", "setting": "[4]", "result": "~15", "unit": "min"}, {"measurement": "recovery of contractility on washout with drug-free perfusate, vs bupivacaine", "setting": "[6]", "result": "significantly greater"}, {"measurement": "effect on developed force and action potential parameters at steady-state", "setting": "[2]", "result": "No significant differences"}, {"measurement": "recovery of contractility on washout with drug-free perfusate, vs bupivacaine", "setting": "[2]; guinea-pig papillary muscle, P<0.05", "result": "significantly greater"}, {"measurement": "duration of sensory/motor block in at least two nerve distributions, range", "setting": "[7]; 0.5%, 50-60 ml", "result": "14 to 24", "unit": "h"}, {"measurement": "mean duration of sensory/motor block in at least two nerve distributions", "setting": "[7]; 0.5%, 50-60 ml", "result": 20, "unit": "h"}, {"measurement": "sensory and motor blockade in all four peripheral nerve distributions immediately post-operatively", "setting": "[7]; 0.5%, 50-60 ml", "result": "All patients had complete sensory and motor blockade"}, {"measurement": "time to request for supplemental analgesics", "setting": "[7]; 0.5%, 50-60 ml", "result": 15, "unit": "h"}, {"measurement": "time to request for supplemental analgesics, range", "setting": "[7]; 0.5%, 50-60 ml", "result": "9 to 24", "unit": "h"}, {"measurement": "patients requiring general anaesthesia due to inadequate sensory/motor block at 30 min post-injection", "setting": "[7]; 0.5%, 50-60 ml, 20 patients", "result": 2, "unit": "patients"}, {"measurement": "patients with adequate onset of sensory/motor blockade for surgical anaesthesia within 30 min", "setting": "[7]; 0.5%, 50-60 ml, 20 patients", "result": 18, "unit": "patients"}, {"measurement": "signs or symptoms of local anaesthetic toxicity", "setting": "[7]; 3-5 mg/kg", "result": "No patient demonstated any subjective or objective signs or symptoms of local anaesthetic toxicity"}, {"measurement": "well tolerated doses for axillary block", "setting": "[7]; axillary block, patients", "result": "3 to 5", "unit": "mg/kg"}, {"measurement": "time to reach Tmax compared with the same dose of racemate", "setting": "[8]; in vivo", "result": "takes longer to reach Tmax"}, {"measurement": "plasma clearance rate compared with bupivacaine", "setting": "[8]; within 0-4 hours post-administration", "result": "faster plasma clearance rate"}, {"measurement": "sensory block efficacy and duration compared with bupivacaine", "setting": "sensory block", "result": "comparable efficacy to bupivacaine"}]}]}
